# In patent US5684013A, “Tricyclic compounds useful for inhibition of g-protein function and for treatment of proliferative diseases” (Schering Corporation, priority 1995, dated 1997):
# Where “and” joins values, the source holds several entries; their conditions need not be identical. Equal entries are not always repeated.
# System: Normal human HEPM fibroblasts
# Test: Cell Mat Assay: inhibition of normal cell growth (cell mat)
# Assay type: cell-based
# Settings: Fibroblast, mIC50, normal cell monolayer
# Procedure: (§1) Normal human HEPM fibroblasts were planted in 3.5 cm dishes at a density of 5×10^4 cells/dish in 2 ml growth medium, and incubated for 3-5 d to achieve confluence. Medium was aspirated from each dish and the indicator tumor cells, T24-BAG4 human bladder carcinoma cells expressing an activated H-ras gene, were planted on top of the fibroblast monolayer at a density of 2×10^3 cells/dish in 2 ml growth medium, and allowed to attach overnight. Compound-induced colony inhibition was assayed by addition of serial dilutions of compound directly to the growth medium 24 h after tumor cell planting, and incubating cells for an additional 14 d to allow colony formation. Assays were terminated by rinsing monolayers twice with phosphate-buffered saline (PBS), fixing the monolayers with a 1% glutaraldehyde solution in PBS, then visualizing tumor cells by staining with X-Gal (Price, J., et al., Lineage analysis in the vertebrate nervous system by retrovirus-mediated gene transfer, Proc. Natl. Acad. Sci. 84, 156-160(1987)). In the colony inhibition assay, compounds were evaluated on the basis of two IC50 values: the concentration of drug required to prevent the increase in tumor cell number by 50% (tIC50) and the concentration of drug required to reduce the density of cells comprising the cell mat by 50% (mIC50). Both IC50 values were obtained by determining the density of tumor cells and mat cells by visual inspection and enumeration of cells per colony and the number of colonies under the microscope. The therapeutic index of the compound was quantitatively expressed as the ratio of mIC50 /tIC50, with values greater than one indicative of tumor target specificity.
row,Structure (SMILES),IC50 [µM]
1,O=S(=O)(c1ccc(F)cc1)N1CCC/C(=C2\c3ccc(Cl)cc3CCc3cccnc32)C1 [Compound E-2H],> 25

# Biological target: T1, farnesyl protein transferase (FPT) (Rattus norvegicus, UniProt Q02293+Q04631)
# T1 construct: were partially purified from rat brain by ammonium sulfate fractionation; from tissue; host or cells: rat brain
# Test: In vitro enzyme assay: inhibition of farnesyl protein transferase (FPT), Ras-CVLS farnesylation
# Assay type: biochemical
# Settings: 14 μM; read-out: FPT inhibition (percent)
# Description: 1. In vitro enzyme assays: Inhibition of farnesyl protein transferase and geranylgeranyl protein transferase.
# Both farnesyl protein transferase (FPT) and geranylgeranyl protein transferase (GGPT) I were partially purified from rat brain by ammonium sulfate fractionation followed by Q-Sepharose (Pharmacia, Inc.) anion exchange chromatography essentially as described by Yokoyama et al (Yokoyama, K., et al., (1991), A protein geranylgeranyltransferase from bovine brain: Implications for protein prenylation specificity, Proc. Natl. Acad. Sci USA 88: 5302-5306, the disclosure of which is incorporated herein by reference thereto). Human farnesyl protein transferase was also expressed in E. coli, using cDNA clones encoding both the a and b subunits. The methods used were similar to those published (Omer, C. et al., (1993), Characterization of recombinant human farnesyl protein transferase: Cloning, expression, farnesyl diphosphate binding, and functional homology with yeast prenyl-protein transferases, Biochemistry 32:5167-5176). Human farnesyl protein transferase was partially-purified from the soluble protein fraction of E. coli as described above. the tricyclic farnesyl protein transferase inhibitors disclosed herein inhibited both human and rat enzyme with similar potencies. Two forms of val^12 -Ha-Ras protein were prepared as substrates for these enzymes, differing in their carboxy terminal sequence. One form terminated in cysteine-valine-leucine-serine (Ras-CVLS) the other in cystein-valine-leucine-leucine (Ras-CVLL). Ras-CVLS is a substrate for the farnesyl protein transferase while Ras-CVLL is a substrate for geranylgeranyl protein transferase I. The cDNAs encoding these proteins were constructed so that the proteins contain an amino-terminal extension of 6 histidine residues. Both proteins were expressed in Escherichia coli and purified using metal chelate affinity chromatography. The radiolabelled isoprenyl pyrophosphate substrates, [^3 H]farnesyl pyrophosphate and [^3 H]geranylgeranyl pyrophosphate, were purchased from DuPont/New England Nuclear.
# Several methods for measuring farnesyl protein transferase activity have been described (Reiss et al 1990, Cell 62: 81; Schaber et al 1990, J. Biol. Chem. 265: 14701; Manne et al 1990, PNAS 87: 7541; and Barbacid & Manne 1993, U.S. Pat. No. 5,185,248). The activity was assayed by measuring the transfer of [^3 H]farnesyl from [^3 H]farnesyl pyrophosphate to Ras-CVLS using conditions similar to those described by Reiss et al. 1990 (Cell 62: 81) The reaction mixture contained 40 mM Hepes, pH 7.5; 20 mM magnesium chloride; 5 mM dithiothreitol; 0.25 μM [^3 H]farnesyl pyrophosphate; […] Q-Sepharose-purified farnesyl protein transferase; the indicated concentration of tricyclic compound or dimethylsulfoxide (DMSO) vehicle control (5% DMSO final); and […] Ras-CVLS in a total volume of […]. The reaction was allowed to proceed for 30 minutes at room temperature and then stopped with 0.5 ml of 4% sodium dodecyl sulfate (SDS) followed by 0.5 ml of cold 30% trichloracetic acid (TCA). Samples were allowed to sit on ice for 45 minutes and precipitated Ras protein was then collected on GF/C filter paper mats using a Brandel cell harvester. Filter mats were washed once with 6% TCA, 2% SDS and radioactivity was measured in a Wallac 1204 Betaplate BS liquid scintillation counter. Percent inhibition was calculated relative to the DMSO vehicle control.
row,inhibition at 14 µM [%],Structure (SMILES)
1,37,O=C(Cc1ccncc1)N1CC/C(=C2\c3ccc(Cl)cc3CCc3cccnc32)C1 [Compound E-3M]
2,11,O=C(Cc1ccncc1)N1CC/C(=C2/c3ccc(Cl)cc3CCc3cccnc32)C1 [Compound E-3A]

# Same assay, conditions: 15 μM; read-out: FPT inhibition (percent)
row,inhibition at 15 µM [%],Structure (SMILES)
1,15,CS(=O)(=O)N1CCC/C(=C2\c3ccc(Cl)cc3CCc3cccnc32)C1 [Compound E-2M]

# Same assay, conditions: 42 μM; read-out: FPT inhibition (percent)
row,inhibition at 42 µM [%],Structure (SMILES)
1,33,COc1ccc(S(=O)(=O)N2CCC/C(=C3\c4ccc(Cl)cc4CCc4cccnc43)C2)cc1 [Compound E-2G]

# Same assay, conditions: 50 μM; read-out: FPT inhibition (percent)
row,inhibition at 50 µM [%],Structure (SMILES)
1,33,O=C(c1ccco1)N1CC/C(=C2/c3ccc(Cl)cc3CCc3cccnc32)C1 [Compound E-3B]

# Same assay, conditions: Table 2
row,FPT IC50,Structure (SMILES)
1,inactive,O=C(c1ccccc1)N1CCC/C(=C2\c3ccc(Cl)cc3CCc3cccnc32)C1 [Compound E-7]

# Same assay, conditions: Table 2; read-out: FPT IC50
row,Structure (SMILES),IC50
1,O=S(=O)(c1cccs1)N1CCC/C(=C2\c3ccc(Cl)cc3CCc3cc(Br)cnc32)C1 [Compound E-1D],0.84 µM
2,CS(=O)(=O)N1CCCC(C2c3ccc(Cl)cc3C=Cc3cccnc32)C1 (centres unmarked) [Compound E-2V],44 µM
3,O=S(=O)(c1ccccc1)N1CCC/C(=C2/c3ccc(Cl)cc3CCc3cccnc32)C1 [Compound E-2P],3.3 µM
4,O=C(NCc1ccc(S(=O)(=O)N2CCC/C(=C3/c4ccc(Cl)cc4CCc4cccnc43)C2)s1)c1ccccc1 [Compound E-1K],> 34 µM
5,O=S(=O)(c1ccccc1)N1CCCC(C2c3ccc(Cl)cc3C=Cc3cccnc32)C1 (centres unmarked) [Compound E-2U],6.4 µM
6,O=[N+]([O-])c1ccc(S(=O)(=O)N2CCC/C(=C3/c4ccc(Cl)cc4CCc4cccnc43)C2)cc1 [Compound E-2Q],> 40 µM
7,O=C(Cc1cccnc1)N1CCCC(C2c3ccc(Cl)cc3CCc3cccnc32)C1 (centres unmarked) [Compound E-3C],8 µM
8,O=S(=O)(c1ccccc1)N1CCC/C(=C2\c3ccc(Cl)cc3CCc3cc(Br)cnc32)C1 [Compound E-2D],0.58 µM
9,O=S(=O)(c1cccs1)N1CCC/C(=C2/c3ccc(Cl)cc3CCc3cccnc32)C1 [Compound E-1J],4.8 µM
10,CC(=O)Nc1ccc(S(=O)(=O)N2CCC/C(=C3\c4ccc(Cl)cc4CCc4cccnc43)C2)cc1 [Compound E-2J],> 39.4 µM
11,O=S(=O)(c1ccc(F)cc1)N1CCC/C(=C2/c3ccc(Cl)cc3CCc3cccnc32)C1 [Compound E-2S],> 43 µM
12,O=S(=O)(c1ccccc1)N1CC/C(=C2\c3ccccc3CCc3cccnc32)C1 [Compound E-2C],2.8 µM
13,COc1ccc(S(=O)(=O)N2CCC/C(=C3/c4ccc(Cl)cc4CCc4cccnc43)C2)cc1 [Compound E-2R],> 42 µM
14,O=S(=O)(c1cccs1)N1CC/C(=C2\c3ccccc3CCc3cccnc32)C1 [Compound E-1B],3.3 µM
15,O=S(=O)(Cc1ccccc1)N1CCC/C(=C2\c3ccc(Cl)cc3CCc3cccnc32)C1 [Compound E-2N],> 13 µM
16,O=S(=O)(c1cccs1)N1CC/C(=C2\c3ccc(Cl)cc3CCc3cccnc32)C1 [Compound E-1],< 0.45 µM and 0.52 µM
17,Cc1cc(C)c(S(=O)(=O)N2CCC/C(=C3\c4ccc(Cl)cc4CCc4cccnc43)C2)c(C)c1 [Compound E-2L],> 12 µM
18,O=S(=O)(c1ccc(F)cc1)N1CCC/C(=C2\c3ccc(Cl)cc3CCc3cccnc32)C1 [Compound E-2H],1.34 µM
19,CC(=O)Nc1ccc(S(=O)(=O)N2CCC/C(=C3/c4ccc(Cl)cc4CCc4cccnc43)C2)cc1 [Compound E-2T],33.5 µM
20,Cc1ccc(S(=O)(=O)N2CCC/C(=C3\c4ccc(Cl)cc4CCc4cccnc43)C2)cc1 [Compound E-2K],> 13 µM

# Other lines, results leading:
row,IC50,Structure (SMILES)
1,> 14 µM,O=C(Nc1ccccc1)N1CCC/C(=C2\c3ccc(Cl)cc3CCc3cccnc32)C1 [Compound E-5]
2,8.8 µM,O=S(=O)(c1cccnc1)N1CCC/C(=C2/c3ccc(Cl)cc3CCc3cccnc32)C1 [Compound E-4B]
3,0.97 µM,O=S(=O)(c1cccnc1)N1CCC/C(=C2\c3ccc(Cl)cc3CCc3cccnc32)C1 [Compound E-4]
4,> 13 µM,O=C(Sc1ccccc1)N1CCC/C(=C2\c3ccc(Cl)cc3CCc3cccnc32)C1 [Compound E-6]
5,> 14 µM,O=C(Cc1ccccc1)N1CCC/C(=C2\c3ccc(Cl)cc3CCc3cccnc32)C1 [Compound E-7B]
6,7.8 µM,O=C(Cc1cccnc1)N1CCC/C(=C2\c3ccc(Cl)cc3CCc3cccnc32)C1 [Compound E-3E]
7,> 14.4 µM,O=C(c1cccnc1)N1CCC/C(=C2\c3ccc(Cl)cc3CCc3cccnc32)C1 [Compound E-7A]
8,> 45 µM,O=C(CCc1ccccc1)N1CCC/C(=C2/c3ccc(Cl)cc3CCc3cccnc32)C1 [Compound E-3L]
9,> 14 µM,O=C(Cc1ccncc1)N1CCC/C(=C2\c3ccc(Cl)cc3CCc3cccnc32)C1 [Compound E-3F]
10,5.1 µM,O=C(Cc1cccnc1)N1CCC/C(=C2/c3ccc(Cl)cc3CCc3cccnc32)C1 [Compound E-3J]
11,6.9 µM,O=C(CSc1ccncc1)N1CC/C(=C2/c3ccc(Cl)cc3CCc3cccnc32)C1 [Compound E-3]
12,> 14 µM,O=C(Cc1ccncc1)N1CCC/C(=C2/c3ccc(Cl)cc3CCc3cccnc32)C1 [Compound E-3K]
13,> 45 µM,O=C(CCc1ccccc1)N1CCC/C(=C2\c3ccc(Cl)cc3CCc3cccnc32)C1 [Compound E-3G]
14,4.2 µM,O=C(CSc1ccncc1)N1CC/C(=C2\c3ccc(Cl)cc3CCc3cccnc32)C1 [Compound E-3N]
15,> 13.9 µM,O=C(Cc1ccncc1)N1CCCC(C2c3ccc(Cl)cc3CCc3cccnc32)C1 (centres unmarked) [Compound E-3D]
16,7.5 µM,O=S(=O)(c1cccnc1)N1CCCC(C2c3ccc(Cl)cc3C=Cc3cccnc32)C1 (centres unmarked) [Compound E-4A]

# System: T24-BAG4 human bladder carcinoma cells
# Test: Cell Mat Assay: inhibition of tumor cell growth
# Assay type: cell-based
# Settings: 336 h, tIC50, 14 d colony formation
# Procedure: as §1
row,IC50 [µM],Structure (SMILES)
1,12.5,O=S(=O)(c1ccc(F)cc1)N1CCC/C(=C2\c3ccc(Cl)cc3CCc3cccnc32)C1 [Compound E-2H]
